Measured values as given in the NIST ThermoML archive (doi:10.1016/j.fluid.2008.12.007).

Details: Liquid, Ebulliometric method (Recirculating still)

C1=CCCCC1 [cyclohexene]
Details	vapor or sublimation pressure [kPa]
315.56 K	24.94
318.01 K	27.43
320.26 K	29.98
322.34 K	32.47
324.31 K	34.95
326.23 K	37.52
327.96 K	39.98
329.61 K	42.45
331.23 K	45.01
332.73 K	47.48
334.22 K	50.02
335.62 K	52.51
336.98 K	55.02
338.27 K	57.52
339.52 K	59.98
340.73 K	62.46
341.94 K	65.02
343.07 K	67.51
344.16 K	69.97
345.27 K	72.51
346.3 K	74.96
347.33 K	77.48
348.35 K	80.02
349.31 K	82.52
350.26 K	84.99
351.18 K	87.45
352.09 K	89.96
352.97 K	92.46
353.85 K	95.01
354.71 K	97.52
355.97 K	101.33

C1CCCCC1 [cyclohexane]
Details	vapor or sublimation pressure [kPa]
313.4 K	24.95
315.76 K	27.43
318.05 K	29.95
320.11 K	32.46
322.06 K	34.9
323.92 K	37.43
325.66 K	39.94
327.32 K	42.42
328.9 K	44.91
330.44 K	47.45
331.94 K	49.92
333.33 K	52.43
334.6 K	54.76
335.99 K	57.44
337.31 K	59.98
338.5 K	62.44
339.65 K	64.86
340.81 K	67.47
341.92 K	69.94
342.99 K	72.45
344.05 K	74.96
344.09 K	75.07
345.11 K	77.54
346.07 K	79.92
347.06 K	82.52
348.01 K	85.03
348.86 K	87.27
349.84 K	89.99
350.73 K	92.48
351.55 K	94.84
353.73 K	101.33

C=CCCCC [hex-1-ene]
Details	vapor or sublimation pressure [kPa]
298.07 K	24.93
300.32 K	27.41
302.55 K	30.08
304.54 K	32.46
306.31 K	34.84
308.2 K	37.48
309.84 K	39.96
311.51 K	42.53
312.98 K	44.96
314.38 K	47.42
315.79 K	49.92
317.17 K	52.53
318.43 K	54.98
319.62 K	57.39
320.84 K	59.94
322.02 K	62.51
323.16 K	64.97
324.21 K	67.45
325.25 K	69.88
326.29 K	72.44
327.32 K	75.04
328.25 K	77.45
329.21 K	79.98
330.11 K	82.42
331.01 K	84.93
331.86 K	87.33
332.74 K	89.92
333.62 K	92.54
334.38 K	94.82
335.24 K	97.45
336.48 K	101.3

CCCCCC [hexane]
Details	vapor or sublimation pressure [kPa]
303.16 K	25.04
305.43 K	27.5
307.43 K	29.95
309.54 K	32.44
311.47 K	35.07
313.25 K	37.51
314.84 K	39.98
316.52 K	42.44
317.92 K	45.02
319.49 K	47.45
320.76 K	50.01
322.26 K	52.52
323.37 K	55.03
324.59 K	57.32
325.89 K	60.07
326.95 K	62.46
328.09 K	64.77
329.19 K	67.22
330.16 K	69.64
331.45 K	72.45
332.28 K	74.82
333.48 K	77.48
334.39 K	79.84
335.33 K	82.31
336.26 K	84.88
337.14 K	87.26
338.02 K	89.85
338.91 K	92.35
339.73 K	94.85
340.44 K	97.02
341.79 K	101.32
